Source: patent publication US20080058709A1, “METHOD AND APPARATUS THAT ASSOCIATE THE PARENTERAL INJECTION OF MEDICAL GRADE CARBON DIOXIDE (CO2) CONCOMITANTLY WITH THE APPLICATION OF INFRARED RADIATION FROM THERMAL AND/OR LIGHT SOURCES USING CONTROL BY MEANS OF CUTANEOUS AND/OR BODY THERMOMETRY” (priority 2006, published 2008)
“Also recorded” adds a separate entry of the source.

Legend:
[1] = tested on: patients allergic to iodine contrast media; conditions: intra-arterial injections, even at large volumes; cited from earlier work
[2] = tested on: patients that had arterial circulatory disease with intermittent claudication; conditions: transcutaneous, bathing in waters rich in CO2; cited from earlier work
[3] = tested on: patients with vascular and painful morbidities; test: subcutaneous and intradermal CO2 injections in patients with vascular and painful morbidities (clinical observation); assay type: in vivo, human
Source text: It was perceived that the beneficial therapeutic effects in the areas of diffusion of CO2 after its injection subcutaneously and intradermally explored the initial “aesthetic” objectives.

acupuncture points = test: application of the invention in acupuncture (carboxyacupuncture); assay type: in vivo, human; conditions: CO2 infusion combined with infrared radiation controlled by thermometry
Source text: Technical variants in the mode of application of the product have also been developed by the proponent, such as: the use of limiting devices or tourniquets (G) at several points of the lower limbs in order to limit the expansion of the gas; distribution and homogenization of the CO2 in areas of interest by means of manual massages with oils, creams, or ointments; as well as the development of specific injection techniques into alternative parenteral routes (intramuscular, subfascial, intrasynovial, and other), as well as new methodologies of injection of the gas (carboxyacupuncture, sclerocarboxytherapy, and carboembolotherapy), all representing methods to optimize the effects and the use of the proposed apparatus (1).
(§1) Along these lines, the applicant has conjectured several clinical applications for using the method and controlled apparatuses of carbon dioxide infusion (A1) combined with the emission of infrared radiation (4) controlled by cutaneous/body thermometry (5) in an interface apparatus (A2) in vascular diseases, painful syndromes, lo treatment of osteoarticular tissues, and induction of focal reactive oxygen therapy. Following tests and observations, the applicant obtained the following results with the application of the present invention: […]

[4] = tested on: bone tissues and related connective tissues; test: application of the invention in direct therapies on bone and related connective tissues; assay type: in vivo, human; conditions: CO2 infusion combined with infrared radiation controlled by thermometry
Source text: as §1

[5] = tested on: Vascular Disease—Miscellaneous; test: application of the invention in vascular disease, miscellaneous (healing, grafts, flaps); assay type: in vivo, human; conditions: CO2 infusion combined with infrared radiation controlled by thermometry
Source text: The present developed method includes two main stages:
Stage I) Application of the medical grade carbon dioxide—CO2—in vascular diseases and painful syndromes consists of the following stages:
d) Injections of the gas (2) via the parenteral route (3), standardized by the type of vasculopathy, painful syndrome, or induction of focal reactive oxygen therapy, adjusted by the type of treatment, and automatically controlled by the interfaces of the apparatus (A2);
Stage II) Application of infrared radiation consists of the following stages:
(§2) a.1) Following antisepsis and placement of limiting devices (G) (tourniquets), initiate the application of 02 to 03 minutes of infrared radiation in the area to be treated with thermal or light infrared radiation emitters (4), prior to initiating the injection of the CO2 gas (2);
as §1

patients = test: infrared radiation applied concomitantly with parenteral CO2 injection: pain during gas infusion; assay type: in vivo, human
Experimental: The intensity of radiation, however, could cause skin lesions; thus, during the infusions, he started to use as a safety parameter the assessment of skin temperature on the sites were irradiation was applied.
as §2
c.1) Monitoring with the infrared emitting source (4) the treated areas (AT) that are receiving the injection of CO2 gas (2), throughout the procedure; in the areas with skin lesions of ischemic etiology, more caution should be exercised when using this radiation.

Q: With `O=C=O` [CO2, carbon dioxide] as the compound, how does the adverse reactions [1] read?
A: Its adverse reactions is “no significant adverse reactions even at large volumes”.

Q: What about the walking distance [2] of the same compound?
A: The walking distance was “improving the walking distance”.

Q: What about the “vascular and painful symptoms following injections of the gas” value ([3]; CO2 injected subcutaneously and intradermally, patients treated for aesthetics) of the same compound?
A: The value was “showed improvement of vascular and painful symptoms”.

Q: And the “therapeutic effects after moving injection sites closer to the painful morbidities and the circulatory system” value ([3]; modified sites and forms of parenteral injection of CO2)?
A: The value was “clear intensification of the initially observed therapeutic effects”.

Q: What about the “results in Acupuncture (Carboxyacupuncture)” value (acupuncture points) of the same compound?
A: Its value is “Greater local effect at systemic and cranial acupuncture points; also recorded: Greater action spectrum on less sensitive meridians; also recorded: Greater longevity of treatment”.

Q: What about the “results in direct therapies on bone tissues and related connective tissues” value [4] of the same compound?
A: The value was “Facilitates intraoperatory dissection of tendinous sheaths; also recorded: Minimizes post tenolysis adhesions”.

Q: And the “results in Vascular Disease—Miscellaneous” value [5]?
A: The value was “Accelerates the cicatricial process in lesions difficult to heal; also recorded: Accelerates the cicatricial process in areas of circulatory deficit; also recorded: Augments donor areas of free skin grafts; also recorded: Circulatory improvement in advancement or myocutaneous flaps”.

Q: And the “analgesia during the infusion of the gas” value (patients)?
A: The value was “produced an important analgesia”.
